The source of these data is patent US20230354862A1, “ANTI-DIABETIC COMPOSITION CONTAINING BEET MIXTURE AS ACTIVE INGREDIENT” (BAE RYEO INNOVATION CO., LTD., priority 2021, published 2023).

In test [1] the test system is SD rats. The test is described as follows: Oral starch tolerance test (OATT). It counts as in vivo, rat. Here is the method: As an experimental food, normal mouse feed (Purina Lab Rodent Chow #38057, Purina Co., Seoul Korea) was fed, and during the acclimatization period, filtered water was replaced with fresh one and the animals were allowed access ad libitum to water. During the breeding period, the animals were kept under the following conditions: temperature, 23±1° C.; humidity, 50±5%; noise, 60 phone or less; lighting time, 08:00 to 20:00 (12 hours a day); illumination, 150 to 300 Lux; 10 to 12 ventilations per hour. This experiment was conducted in compliance with the Animal Experimental Ethics Regulations. After completion of the acclimatization period, the experimental animals were divided into groups using the randomized block design based on fasting blood glucose that the mean values between the groups were uniform, and then the animals were marked using an ear punch. […] Changes in blood glucose levels in each group were analyzed based on the measured blood glucose levels. All experimental results were calculated as mean±standard error (mean±S.E.) using the statistical program (SPSS ver. 12.0, SPSS Inc., Chicago, IL, USA). […]

The test system of test [2] is SD rats. The test is described as follows: Oral sucrose tolerance test (OSTT). The test is classed as in vivo, rat. The settings on record: 3 mg/kg acarbose (A 3). How it is done:
As an experimental food, normal mouse feed (Purina Lab Rodent Chow #38057, Purina Co., Seoul Korea) was fed, and during the acclimatization period, filtered water was replaced with fresh one and the animals were allowed access ad libitum to water. During the breeding period, the animals were kept under the following conditions: temperature, 23±1° C.; humidity, 50±5%; noise, 60 phone or less; lighting time, 08:00 to 20:00 (12 hours a day); illumination, 150 to 300 Lux; 10 to 12 ventilations per hour. This experiment was conducted in compliance with the Animal Experimental Ethics Regulations. After completion of the acclimatization period, the experimental animals were divided into groups using the randomized block design based on fasting blood glucose that the mean values between the groups were uniform, and then the animals were marked using an ear punch. The animals were divided into a normal group, a control group, a group to which 10 mg/kg of the beet mixture was administered (10 mg/kg Beta vulgaris mixture group), a group to which 30 mg/kg of the beet mixture was administered (30 mg/kg Beta vulgaris mixture group), a group to which 30 mg/kg of the beet mixture was administered (30 mg/kg Beta vulgaris mixture group), and a positive control group (3 mg/kg acarbose), each consisting of 8 animals. Using these groups, an oral sucrose tolerance test (OSTT) and an oral starch tolerance test (OATT) were conducted. […] Changes in blood glucose levels in each group were analyzed based on the measured blood glucose levels. All experimental results were calculated as mean±standard error (mean±S.E.) using the statistical program (SPSS ver. 12.0, SPSS Inc., Chicago, IL, USA). Statistically significant differences between experimental groups were tested using a one-way analysis of variance test (ANOVA), and in case of significance (p<0.05), a post-test was performed with the Duncan's multiple range test.

Test [3] concerns db/db mice. Kind of test: Tissue weight analysis in type 2 diabetes model. The test is classed as in vivo, mouse. The settings on record: 300 mg/kg metformin (Met 300). An excerpt: (§1) As experimental animals, 5-week-old specific-pathogen free (SPF) male db/db mice were obtained from Central Laboratory Animal, Inc. (Seoul, Korea), and acclimated for 1 week before use in the experiment. As an experimental food, normal mouse feed (Purina Lab Rodent Chow #38057, Purina Co., Seoul Korea) was fed, and during the acclimatization period, filtered water was replaced with fresh one daily and the animals were allowed access ad libitum to water. During the breeding period, the animals were kept under the following conditions: temperature, 23±1° C.; humidity, 50±5%; noise, 60 phone or less; lighting time, 08:00 to 20:00 (12 hours a day); illumination, 150 to 300 Lux; 10 to 12 ventilations per hour. This experiment was conducted in compliance with the Animal Experimental Ethics Regulations.
(§2) After completion of the acclimatization period, the experimental animals were divided into groups using the randomized block design based on fasting blood glucose that the mean values between the groups were uniform, and then the animals were marked using an ear punch. The animals were divided into a normal group, a control group, a group to which 10 mg/kg of the beet mixture was administered (10 mg/kg Beta vulgaris mixture group), a group to which 30 mg/kg of the beet mixture was administered (30 mg/kg Beta vulgaris mixture group), a group to which 30 mg/kg of the beet mixture was administered (30 mg/kg Beta vulgaris mixture group), and a positive control group (300 mg/kg metformin), each consisting of 8 animals. Each sample was orally administered 5 times a week for 3 weeks.
(§3) Weekly body weight and blood sugar level were all measured once a week at a certain time, and food intake and water intake were measured the next day after feeding certain amounts of food and water once a week. Weekly blood glucose levels were measured using blood collected from the caudal veins using a blood glucose meter (AutoCheck, Diatech Korea) at a certain time every week. For autopsy, blood was collected from the abdominal vena cava after inhalation anesthesia and used for blood analysis, and the liver, epididymal fat, pancreas, and kidney were harvested and weighed.
(§4) All experimental results were calculated as mean±standard error (S.E.) using SPSS ver. 12.0 (SPSS Inc., Chicago, IL, USA). Statistically significant differences between experimental groups were tested using a one-way analysis of variance test (ANOVA), and in case of significance (p<0.05), a post-test was performed with the Duncan's multiple range test.

The test system of test [4] is db/db mice. The test is described as follows: Histological analysis of β-cell area (insulin immunostaining of pancreas). The settings on record: 300 mg/kg metformin (Met 300). It counts as in vivo, mouse.
Excerpt: as §1, with “Regulations. […]” for “Regulations.”
Analysis of the islets of Langerhans in the pancreatic tissue was performed by immunostaining. […] After washing twice with TBST buffer for 5 min, samples were reacted with 2.5% normal goat serum for blocking (Vector, USA) for 20 min, and then the blocking reagent and working insulin antibody (Cell Signaling, MA, USA) solution (2 to 10 μl of antibody to 1 ml of Ready-To-Use 2.5% normal goat serum for blocking) was reacted at 4° C. overnight. […]
(§5) All experimental results were calculated as mean±standard error (S.E.) using SPSS ver. […]

The test system of test [5] is db/db mice. Kind of test: Hematological (serum) analysis in type 2 diabetes model. It counts as in vivo, mouse. The conditions noted are these: 300 mg/kg metformin (Met 300).
Excerpt: as §1, §2, §3
Blood was collected from the abdominal vena cava, placed in conical tubes, coagulated for 30 minutes at room temperature, and then centrifuged at 3,000 rpm for 10 minutes. Analysis of blood fructosamine, TC, TG, LDL-C, HDL-C, and VLDL levels were performed by KPNT (Cheongju, Korea), and insulin analysis was performed using an ELISA kit (Crystalchem, USA). HOMA-IR and HOMA-beta levels were calculated based on the blood analysis results.
as §4

For test [6], the system named is db/db mice. Kind of test: Oral glucose tolerance test in type 2 diabetes model. The test is classed as in vivo, mouse. The conditions noted are these: 300 mg/kg metformin (Met 300).
Excerpt: as §1
(§6) After completion of the acclimatization period, the experimental animals were divided into groups using the randomized block design based on fasting blood glucose that the mean values between the groups were uniform, and then the animals were marked using an ear punch. […]
as §5

Test [7] has as its system db/db mice. The test is described as follows: Weekly biomarker analysis in type 2 diabetes model (body weight, food and water intake, blood glucose). It counts as in vivo, mouse. The conditions noted are these: 300 mg/kg metformin (Met 300).
Excerpt: as §1, §2
Weekly body weight and blood sugar level were all measured once a week at a certain time, and food intake and water intake were measured the next day after feeding certain amounts of food and water once a week. Weekly blood glucose levels were measured using blood collected from the caudal veins using a blood glucose meter (AutoCheck, Diatech Korea) at a certain time every week. […]
as §5

Test [8] relates to db/db mice. The test is described as follows: Glycated hemoglobin (HbA1c) analysis in type 2 diabetes model. The test is classed as in vivo, mouse. The settings on record: after 3 weeks, 300 mg/kg metformin (Met 300).
Excerpt: as §1, §6, §5

Structures are written as SMILES.

Take `C[C@H]1O[C@H](O[C@H]2[C@H](O)[C@@H](O)[C@@H](O[C@H]3[C@H](O)[C@@H](O)C(O)O[C@@H]3CO)O[C@@H]2CO)[C@H](O)[C@@H](O)[C@@H]1N[C@H]1C=C(CO)[C@@H](O)[C@H](O)[C@H]1O` (stereo partly drawn) [acarbose]: the “change in blood glucose after starch administration (AUC)” value in the test with SD rats [1] (3 mg/kg acarbose (A 3)) worked out at 197.32 ± 7.12 mg/dL. The “blood glucose level at 30 min after starch administration” value in the test with SD rats [1] (3 mg/kg acarbose oral (A 3)) was determined as 90.63 ± 3.80 mg/dL. In the test on SD rats [2], the “blood glucose level at 30 min after sucrose administration” value was 95.88 ± 3.20 mg/dL, the “blood glucose level at 120 min after sucrose administration” value came to 80.38 ± 1.76 mg/dL and the “change in blood glucose level after sucrose administration (AUC)” value was 197.32 ± 7.12 mg/dL.

In the test with db/db mice [3] (after 3 weeks), `CN(C)C(=N)N=C(N)N` [metformin] came in with a kidney tissue weight of 0.303 ± 0.008 g and a liver tissue weight of 1.97 ± 0.06 g. In the test with db/db mice [3] (at autopsy), the “epididymal fat tissue weight” value worked out at 1.761 ± 0.038 g and the pancreatic tissue weight was found to be 0.116 ± 0.005 g. The same compound registered a β-cell area in the test with db/db mice [4] of 83242.23±11320.56 μm^2. Besides, in the test on db/db mice [5], the “HOMA-IR level (insulin resistance)” value turned out to be 0.975±0.199, the “HOMA-β level (insulin secretion ability)” value amounted to 6.863±0.404, the “serum HDL cholesterol level” value turned out to be 105.09 ± 2.63 mg/dL and the serum fructosamine level was determined as 319.13 ± 10.89 µmol/L. Further, in the test on db/db mice [5], the “serum total cholesterol level” value is 126.50 ± 2.24 mg/dL. In addition, in the test with db/db mice [5] (after 3 weeks), the LDL cholesterol level is 12.94 ± 0.84 mg/dL, the serum insulin level was 12.94 ± 0.84 ng/mL and the serum triglyceride level stood at 236.13 ± 11.87 mg/dL. Further, in the test with db/db mice [6], the “blood glucose level at 30 min after oral glucose administration” value turned out to be 382.0 ± 31.0 mg/dL and the “change in blood glucose level after glucose administration (OGTT AUC)” value is 778.06 ± 262.53 mg/dL. Also, in the test with db/db mice [7], the “blood glucose level at 1 week after sample administration” value worked out at 167.0 ± 19.1 mg/dL, the “blood glucose level at 3 weeks after sample administration” value stood at 238.8 ± 21.9 mg/dL and the “body weight at week 3” value amounted to 34.04 ± 0.35 g. Also, the HbA1c level with db/db mice [8] is on record as 6.79±0.29%.
